The test system of data set [1] is MCF7. Put plainly: cells. To be noted: Homo sapiens.
The test system of data set [2] is T47D. Put plainly: cells. The following applies: Homo sapiens.
The test system of data set [3] is COLO 205. Put plainly: cells. The following applies: Homo sapiens.
Data set [4] relates to A549. Put plainly: cells. To be noted: Homo sapiens.
The subject of data set [5] is ZR-75-1. Put plainly: cells. The following applies: Homo sapiens.
The subject of data set [6] is MCF7. It counts as functional, Homo sapiens. The following applies: at 50 mg/kg.
Data set [7] concerns COLO 205. The following applies: Homo sapiens.
Data set [8] relates to U-87 MG. Put plainly: cells. To be noted: Homo sapiens.
Data set [9] relates to U-251. Put plainly: cells. To be noted: Homo sapiens.
Data set [10] deals with HepG2. Put plainly: cells. The following applies: Homo sapiens.
Data set [11] deals with SNU-5. Put plainly: cells. To be noted: Homo sapiens.
The subject of data set [12] is NCI-N87. Put plainly: cells. The following applies: Homo sapiens.
The test system of data set [13] is NCI-H1975. Put plainly: cells. The following applies: Homo sapiens.
The test system of data set [14] is NCI-H1993. Put plainly: cells. To be noted: Homo sapiens.
Data set [15] relates to CFPAC-1. Put plainly: cells. To be noted: Homo sapiens.
For data set [16], the system named is PANC-1. Put plainly: cells. The following applies: Homo sapiens.
For data set [17], the system named is BXPC-3. Put plainly: cells. To be noted: Homo sapiens.
The test system of data set [18] is LNCaP. Put plainly: cells. The following applies: Homo sapiens.
Data set [19] relates to PC-3. Put plainly: cells. To be noted: Homo sapiens.
The nature of data set [20]: in vivo. The following applies: BALB/c, mouse, iv, 3 mg/kg.
Data set [21] can be described thus: in vivo. The following applies: BALB/c, mouse, iv, 3 mg/kg. The source holds these as a separate data set.
Data set [22] is described as follows: in vivo. To be noted: BALB/c, mouse, iv, 3 mg/kg. This is another data set of the same source.
Data set [23] in a line: in vivo. The following applies: BALB/c, mouse, iv, 3 mg/kg. The source holds these as a separate data set.
The nature of data set [24]: in vivo. The following applies: BALB/c, mouse, iv, 3 mg/kg. This is another data set of the same source.
Data set [25] is described as follows: in vivo. The following applies: BALB/c, mouse, po, 10 mg/kg.
Data set [26] in a line: in vivo. The following applies: BALB/c, mouse, po, 10 mg/kg. This is another data set of the same source.
Data set [27] is described as follows: in vivo. The following applies: BALB/c, mouse, po, 10 mg/kg. This is another data set of the same source.
A short description of data set [28]: in vivo. The following applies: BALB/c, mouse, po, 10 mg/kg. This is another data set of the same source.
Data set [29] can be described thus: in vitro. To be noted: human, microsomes.
Data set [30] is described as follows: in vitro. To be noted: mouse, microsomes.
Data set [31] is described as follows: in vitro. The following applies: rat, microsomes.
Data set [32] is described as follows: in vitro. To be noted: dog, microsomes.
Data set [33] can be described thus: in vitro. The following applies: rhesus monkey, microsomes.
Data set [34] can be described thus: in vitro. To be noted: human, microsomes. This is another data set of the same source.
Data set [35] can be described thus: in vitro. To be noted: mouse, microsomes. This is another data set of the same source.
Data set [36] can be described thus: in vitro. The following applies: rat, microsomes. This is another data set of the same source.
Data set [37] in a line: in vitro. The following applies: dog, microsomes. This is another data set of the same source.
A short description of data set [38]: in vitro. The following applies: rhesus monkey, microsomes. The source holds these as a separate data set.

Active and inactive are the calls of the source.

For the molecule `Cc1nc2c(F)cc(-c3nc(Nc4ccc5c(n4)CCN(CCN(C)P(C)(C)=O)C5)ncc3F)cc2n1C(C)C`, the IC50 in data set [1] is 551 nM; in [2] it was 29 nM; in data set [3] it was 387 nM; in [4], 934 nM.

In the case of `CCOP(=O)(OCC)N(C)CCN1CCc2nc(Nc3ncc(F)c(-c4cc(F)c5nc(C)n(C(C)C)c5c4)n3)ccc2C1`, the IC50 in [1] is 150 nM; in [5] it was 453 nM; in data set [3], 911 nM; in data set [4] it was 1060 nM.

On to `C/C(=N\O)N(C)CCN1CCc2nc(Nc3ncc(F)c(-c4cc(F)c5nc(C)n(C(C)C)c5c4)n3)ccc2C1`, for which the IC50 came to 193 nM in data set [1]; 62.5 nM in data set [2]; 121 nM in [5]; 125 nM in data set [3]; 423 nM in data set [4].

Molecule `CCN1CCN(Cc2ccc(Nc3ncc(F)c(-c4cc(F)c5nc(C)n(C(C)C)c5c4)n3)nc2)CC1` [ABEMACICLIB] returned a T/C in data set [6] of 37%. For the same molecule, the TGI result in data set [7] was “Active”. Also, the IC50 in [8] worked out at 706 nM; in data set [9], 294 nM; in data set [10], 216 nM; in data set [11], 523 nM; in data set [12], 519 nM; in [13], 774 nM. Besides, the IC50 in [14] was determined as 1160 nM; in data set [15] it was 371 nM; in [16] it was 701 nM; in data set [17], 127 nM; in data set [18] it was 84 nM; in [19], 9210 nM. The Cmax at 24 h in [20] turned out to be 765 ng/mL; in [25] it was 577 ng/mL. Further, the AUC(0-t) at 24 h in data set [21] came out at 830 ng·h/mL; in data set [26], 2170 ng·h/mL. The half-life at 24 h in data set [22] was 325 min; in data set [27] it was 283 min. Also, the volume of distribution (Vd) at 24 h in [23] was 8.24 L/kg. In addition, the clearance at 24 h in data set [24] was 60 mL/min/kg. The same molecule displayed a bioavailability at 24 h in data set [28] of 78.6%. The half-life at 1 h in data set [29] was 8.15 min; in data set [30], 8.25 min; in data set [31], 231 min; in data set [32] it was 17.8 min; in data set [33], 3.96 min. Further, the microsomal CLint at 1 h was determined as 170 µL/min/mg in data set [34]; 168 µL/min/mg in data set [35]; 6 µL/min/mg in data set [36]; 78 µL/min/mg in data set [37]; 350 µL/min/mg in [38].

Usually IC50 stands for the point on the concentration scale where inhibition reaches its midpoint. A high value points to weaker potency. For orientation: T/C means the result in the treated group divided by that in the control group, in per cent. As a reminder, the Cmax is the highest concentration seen after dosing. A word on the AUC(0-t): it is exposure summed from dosing to a finite time, without extrapolation to infinity. Lower therefore signals low exposure. As usually defined, the half-life is the time needed for the level to fall by half in the phase considered. As usually defined, the Vd is the apparent volume that relates the amount in the body to the concentration in plasma or blood. High values mean extensive tissue distribution, low ones confinement near the circulation. A word on the clearance: it is the rate of elimination divided by the concentration. The term bioavailability denotes the share of a dose that reaches the circulation, judged against a reference dose that is usually intravenous. Lower therefore signals little systemic uptake. For orientation: microsomal CLint means the capacity of the preparation to metabolise the compound, expressed as a volume cleared per time.

For the origin of these results see ChEMBL document CHEMBL4304763 (Eur J Med Chem, 2019).
